According to ChEMBL document CHEMBL1201862, “PubChem BioAssay data set” (2004):
Counter-ions that a name gives are not always drawn. Values belong to the compound of their own block, whether it stands above or below them. Activity calls are given as the source filed them.

Columns and labels:
[1] = target: Metabotropic glutamate receptor 7 (Homo sapiens, UniProt Q14831); assay: potentiation of glutamate EC20 at mGlu7 – cell-based, calcium mobilization, Galpha15, dose response (AID 743384); format: functional
Sequence of Metabotropic glutamate receptor 7 (Q14831 whole entry): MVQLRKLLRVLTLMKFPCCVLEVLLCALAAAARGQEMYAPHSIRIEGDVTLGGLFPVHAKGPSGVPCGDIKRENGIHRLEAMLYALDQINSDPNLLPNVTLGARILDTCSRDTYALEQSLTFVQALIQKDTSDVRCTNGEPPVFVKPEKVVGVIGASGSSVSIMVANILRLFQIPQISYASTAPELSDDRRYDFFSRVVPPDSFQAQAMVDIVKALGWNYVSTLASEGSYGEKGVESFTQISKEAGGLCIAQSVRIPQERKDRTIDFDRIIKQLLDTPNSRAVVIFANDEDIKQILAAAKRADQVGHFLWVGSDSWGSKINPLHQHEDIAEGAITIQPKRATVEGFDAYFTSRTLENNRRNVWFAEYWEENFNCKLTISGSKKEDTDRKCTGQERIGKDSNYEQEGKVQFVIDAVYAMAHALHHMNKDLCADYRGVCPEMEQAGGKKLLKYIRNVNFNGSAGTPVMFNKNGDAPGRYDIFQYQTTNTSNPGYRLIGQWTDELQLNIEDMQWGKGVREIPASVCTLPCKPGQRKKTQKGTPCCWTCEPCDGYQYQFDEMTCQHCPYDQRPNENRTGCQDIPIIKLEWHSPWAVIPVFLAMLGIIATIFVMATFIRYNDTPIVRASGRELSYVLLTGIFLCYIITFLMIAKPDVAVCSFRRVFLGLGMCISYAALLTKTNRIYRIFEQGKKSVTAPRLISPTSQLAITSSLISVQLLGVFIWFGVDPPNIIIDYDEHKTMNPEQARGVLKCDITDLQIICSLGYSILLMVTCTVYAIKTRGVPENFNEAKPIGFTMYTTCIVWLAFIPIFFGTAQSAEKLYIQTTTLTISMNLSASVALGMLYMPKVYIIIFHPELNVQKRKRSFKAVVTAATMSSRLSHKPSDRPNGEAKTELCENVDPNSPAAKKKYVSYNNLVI

[2] = target: RNA-editing ligase 1, mitochondrial (Trypanosoma brucei brucei, UniProt P86926); assay: inhibition of trypanosome RNA editing ligase – biochemical, fluorescence, Trypanosoma brucei, dose response (AID 1117295); format: functional
Sequence of RNA-editing ligase 1, mitochondrial (P86926 whole entry): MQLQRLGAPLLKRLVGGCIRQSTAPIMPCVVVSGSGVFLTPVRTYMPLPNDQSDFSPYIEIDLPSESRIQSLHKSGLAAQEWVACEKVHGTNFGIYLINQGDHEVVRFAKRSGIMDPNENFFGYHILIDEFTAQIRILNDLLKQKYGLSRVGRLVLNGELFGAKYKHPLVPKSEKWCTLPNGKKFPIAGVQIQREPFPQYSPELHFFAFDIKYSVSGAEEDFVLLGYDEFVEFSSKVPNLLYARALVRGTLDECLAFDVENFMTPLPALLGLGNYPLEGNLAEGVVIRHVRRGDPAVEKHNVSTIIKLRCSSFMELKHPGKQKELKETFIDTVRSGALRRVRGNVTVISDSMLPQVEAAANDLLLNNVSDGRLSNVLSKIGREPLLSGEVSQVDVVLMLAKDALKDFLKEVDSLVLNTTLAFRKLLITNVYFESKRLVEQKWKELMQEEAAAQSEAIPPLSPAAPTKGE

[3] = target: Sphingosine 1-phosphate receptor 2 (Homo sapiens, UniProt O95136); assay: Dose Response Cell Based Assay for Agonists of the S1P2 Receptor. [Related pubchem assays: 729, 736, 843 ]; format: functional
Sequence of Sphingosine 1-phosphate receptor 2 (O95136 whole entry): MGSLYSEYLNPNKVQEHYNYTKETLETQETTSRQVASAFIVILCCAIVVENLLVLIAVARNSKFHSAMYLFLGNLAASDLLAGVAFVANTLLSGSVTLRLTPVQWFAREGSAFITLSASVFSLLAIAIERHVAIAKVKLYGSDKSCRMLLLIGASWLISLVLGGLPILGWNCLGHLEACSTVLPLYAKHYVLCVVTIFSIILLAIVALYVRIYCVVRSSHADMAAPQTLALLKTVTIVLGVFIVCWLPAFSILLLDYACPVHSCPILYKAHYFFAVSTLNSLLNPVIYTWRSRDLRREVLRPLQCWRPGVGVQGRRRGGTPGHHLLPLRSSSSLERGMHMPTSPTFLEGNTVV

[4] = target: Cytochrome P450 2C19 (Homo sapiens, UniProt P33261); assay: Cytochrome panel assay with activity outcomes. Panel member name: p450-cyp2c19 Compounds with AC50 equal or less than 10 uM are considered active; format: functional; conditions: read-out: AC50
Sequence of Cytochrome P450 2C19 (P33261 whole entry): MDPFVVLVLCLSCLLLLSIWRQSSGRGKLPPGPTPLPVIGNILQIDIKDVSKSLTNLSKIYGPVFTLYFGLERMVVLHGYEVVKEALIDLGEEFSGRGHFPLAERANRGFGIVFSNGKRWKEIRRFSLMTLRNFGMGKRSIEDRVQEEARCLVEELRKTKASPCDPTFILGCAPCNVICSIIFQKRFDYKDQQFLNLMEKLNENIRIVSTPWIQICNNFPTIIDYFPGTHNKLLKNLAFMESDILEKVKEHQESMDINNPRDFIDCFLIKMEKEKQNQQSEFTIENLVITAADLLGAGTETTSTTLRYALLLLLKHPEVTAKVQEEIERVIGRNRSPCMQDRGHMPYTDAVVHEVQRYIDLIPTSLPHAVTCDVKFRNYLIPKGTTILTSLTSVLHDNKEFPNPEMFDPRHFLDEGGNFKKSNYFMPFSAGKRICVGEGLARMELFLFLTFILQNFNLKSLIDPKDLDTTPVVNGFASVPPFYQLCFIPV

[5] = target: T1, Cytochrome P450 1A2 (Homo sapiens, UniProt P05177);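 also: PubChem cytochrome P450 panel assay, CYP1A2 panel member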
T1 sequence (P05177 whole entry): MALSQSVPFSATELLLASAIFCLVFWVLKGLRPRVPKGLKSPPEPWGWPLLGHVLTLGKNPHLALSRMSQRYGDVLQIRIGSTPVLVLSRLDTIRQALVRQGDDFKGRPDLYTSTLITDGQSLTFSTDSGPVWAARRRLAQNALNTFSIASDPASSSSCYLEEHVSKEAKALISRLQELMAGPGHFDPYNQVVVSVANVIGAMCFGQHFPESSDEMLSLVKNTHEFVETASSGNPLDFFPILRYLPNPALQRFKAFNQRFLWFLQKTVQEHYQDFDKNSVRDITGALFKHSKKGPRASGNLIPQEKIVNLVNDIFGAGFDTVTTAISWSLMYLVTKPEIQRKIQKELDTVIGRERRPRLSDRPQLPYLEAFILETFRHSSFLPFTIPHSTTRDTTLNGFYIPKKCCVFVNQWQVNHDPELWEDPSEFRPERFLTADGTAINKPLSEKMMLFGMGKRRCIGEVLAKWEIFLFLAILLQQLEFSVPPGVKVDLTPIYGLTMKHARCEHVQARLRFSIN

[6] = CellTiter-Glo luminescence survival assay, SW480 colon tumor line, concentration-response curve, half-maximal inhibitory concentration (AID 1117338); format: functional
[7] = RKO cell viability reduction, dose response, CellTiter-Glo luminescence (AID 1117322); format: functional
[8] = cytotoxicity toward HCT116 cells – cell-based, CellTiter-Glo luminescence, IC50, dose response (AID 1117332); format: functional; conditions: HCT-116
[9] = SNU-C1 cell viability reduction, dose response, CellTiter-Glo luminescence (AID 1117323); format: functional, cell-based
[10] = cytotoxicity toward Colo320 cells – cell-based, CellTiter-Glo luminescence, IC50, dose response (AID 1117334); format: functional; conditions: COLO 320
[11] = cytotoxicity toward HT-29 cells – cell-based, CellTiter-Glo luminescence, IC50, dose response (AID 1117330); format: functional
[12] = Reduced DLD-1 viability, concentration-response, CellTiter-Glo luminescence (AID 1117352); format: functional
[13] = HCT116 cell viability decrease, GSK3B pretreatment – CellTiter-Glo, IC50, dose response (AID 1117339); format: functional; conditions: HCT-116
[14] = Late stage results for the probe development effort to identify inhibitors of Plasmodium falciparum gametocytes: Luminescence-based cell-based high throughput dose response assay to identify inhibitors of viability of late stage Plasmodium falciparum gametocytes.; format: functional
[15] = viability inhibitors of stage V gametocytes – luminescence, dose response (AID 1117278); format: functional, cell-based;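 also: gametocytes exposed to compound for 24 hours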
[16] = viability loss in human Jurkat cells – cell-based, luminescence, cytotoxicity control for P. falciparum gametocyte viability project, dose response (AID 1117277); format: functional;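 also: potency reflects loss of cellular ATP meaning fewer viable cells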
[17] = target: Glutathione-S-transferase (Schistosoma japonicum, UniProt Q26513); assay: GST-antibody interaction or FRET quenching – biochemical, TR-FRET, artefact control for Vif-APOBEC3G degradation inhibitor project, dose response (AID 1117362); format: functional
Sequence of Glutathione-S-transferase (Q26513 whole entry): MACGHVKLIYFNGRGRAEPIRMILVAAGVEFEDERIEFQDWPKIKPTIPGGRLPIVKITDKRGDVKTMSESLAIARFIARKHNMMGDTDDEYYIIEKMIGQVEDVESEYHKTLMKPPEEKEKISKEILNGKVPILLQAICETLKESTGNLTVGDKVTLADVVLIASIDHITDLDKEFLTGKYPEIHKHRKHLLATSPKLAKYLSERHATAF

[18] = glucagon-like peptide-1 release potency in STC-1, concentration-response, half-maximal inhibitory concentration in the STC-1 line (AID 1117345); format: functional, cell-based
[19] = Potency on glucagon-like peptide 1 release, dose-response in NCI-H716 cell line, half maximal inhibitory concentration (AID 1117344); format: functional, cell-based
[20] = target: T2, Aryl hydrocarbon receptor (Homo sapiens, UniProt P35869); conditions: Potency;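 also: confirmatory quantitative high-throughput screen measuring activation of the AhR signaling pathway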
T2 sequence (P35869 whole entry): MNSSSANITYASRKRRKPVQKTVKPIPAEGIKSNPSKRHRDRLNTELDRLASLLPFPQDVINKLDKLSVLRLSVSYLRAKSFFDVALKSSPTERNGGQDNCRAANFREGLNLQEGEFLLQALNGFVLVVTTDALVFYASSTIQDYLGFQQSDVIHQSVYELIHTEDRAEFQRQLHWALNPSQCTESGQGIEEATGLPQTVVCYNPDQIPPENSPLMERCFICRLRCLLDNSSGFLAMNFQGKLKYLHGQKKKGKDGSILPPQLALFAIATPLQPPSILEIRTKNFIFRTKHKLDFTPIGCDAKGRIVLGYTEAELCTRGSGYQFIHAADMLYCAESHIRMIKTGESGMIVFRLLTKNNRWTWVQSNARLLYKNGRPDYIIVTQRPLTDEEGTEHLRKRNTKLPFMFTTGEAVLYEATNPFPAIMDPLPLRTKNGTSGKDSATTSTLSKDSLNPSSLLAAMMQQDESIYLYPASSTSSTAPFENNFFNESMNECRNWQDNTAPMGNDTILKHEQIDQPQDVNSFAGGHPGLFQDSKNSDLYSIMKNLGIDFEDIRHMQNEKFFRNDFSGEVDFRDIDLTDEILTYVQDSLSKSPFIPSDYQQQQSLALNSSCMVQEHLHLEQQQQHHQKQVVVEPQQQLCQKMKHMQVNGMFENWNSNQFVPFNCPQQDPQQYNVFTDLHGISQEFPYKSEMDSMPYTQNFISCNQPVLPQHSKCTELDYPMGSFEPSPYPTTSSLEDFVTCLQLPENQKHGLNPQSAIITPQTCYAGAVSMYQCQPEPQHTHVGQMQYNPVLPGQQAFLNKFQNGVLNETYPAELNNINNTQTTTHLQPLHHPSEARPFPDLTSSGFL

[21] = target: Heat shock protein HSP90 (Homo sapiens, UniProt P07900+P08238); assay: Hsp90 blockade concentration-response – dose response (AID 712); format: functional
[22] = target: T3, Dual specificity protein phosphatase 6 (Rattus norvegicus, UniProt Q64346); assay: inhibition of rat DUSP6 enzyme activity – biochemical, in vitro, primary screen (AID 425)
T3 sequence (Q64346 whole entry): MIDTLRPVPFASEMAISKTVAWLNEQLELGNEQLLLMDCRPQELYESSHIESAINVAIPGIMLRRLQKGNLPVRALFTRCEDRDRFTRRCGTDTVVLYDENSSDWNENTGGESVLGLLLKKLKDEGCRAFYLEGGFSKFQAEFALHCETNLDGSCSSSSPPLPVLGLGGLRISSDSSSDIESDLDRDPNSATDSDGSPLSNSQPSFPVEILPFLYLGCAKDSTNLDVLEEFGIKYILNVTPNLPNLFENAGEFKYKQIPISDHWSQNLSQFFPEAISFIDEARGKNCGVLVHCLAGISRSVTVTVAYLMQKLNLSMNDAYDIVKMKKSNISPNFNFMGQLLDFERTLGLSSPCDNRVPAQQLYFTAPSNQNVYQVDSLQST

[23] = IC50 of insulin release inhibition, rat insulinoma INS-1E line, 5 mM glucose, cell-based (AID 1117331); format: functional
[24] = Dd2 parasite growth inhibition in erythrocytes – SYBR Green, dry powder samples, set 4, dose response (AID 1159572); format: functional, cell-based
[25] = target: T4, Small ubiquitin-related modifier 1 (Homo sapiens, UniProt P63165); assay: SUMO1 protein interaction blockers, potency – biochemical, fluorescence polarization, uHTS hits, dose response (AID 624382); format: functional; conditions: read-out: IC50_Mean
T4 sequence (P63165 whole entry): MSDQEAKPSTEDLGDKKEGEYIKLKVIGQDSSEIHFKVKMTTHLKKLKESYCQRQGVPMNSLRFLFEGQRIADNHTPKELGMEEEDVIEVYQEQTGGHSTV

[26] = target: T4, Small ubiquitin-related modifier 1; assay: SUMO1 protein-protein binding blockers, potency – biochemical, FRET, dose response (AID 624383); format: functional; conditions: read-out: IC50_Mean
[27] = target: Caspase-6 (Homo sapiens, UniProt P55212); assay: inhibition of CASP6 peptide cleavage – biochemical, VEID-R110 fluorescence, cherry-pick, dose response (AID 720632)
Sequence of Caspase-6 (P55212 24-179 limits assumed): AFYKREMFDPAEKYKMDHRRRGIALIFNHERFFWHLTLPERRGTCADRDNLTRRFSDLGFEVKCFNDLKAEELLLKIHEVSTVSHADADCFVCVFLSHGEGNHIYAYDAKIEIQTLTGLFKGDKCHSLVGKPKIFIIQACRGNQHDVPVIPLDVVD
Sequence of Caspase-6 (P55212 194-293 limits assumed): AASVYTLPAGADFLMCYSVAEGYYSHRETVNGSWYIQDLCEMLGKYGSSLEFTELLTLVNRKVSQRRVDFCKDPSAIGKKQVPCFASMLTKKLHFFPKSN

[28] = target: E3 ubiquitin-protein ligase UHRF1 (Homo sapiens, UniProt Q96T88); assay: Counterscreen for inhibitors of 5-meCpG-binding domain protein 2 (MBD2): TRFRET-based biochemical high throughput dose response assay to identify inhibitors of binding of ubiquitin-like with PHD and ring finger domains 1 (UHRF1) to methylated oligonucleotide.
Sequence of E3 ubiquitin-protein ligase UHRF1 (Q96T88 whole entry, the tested form may be a part): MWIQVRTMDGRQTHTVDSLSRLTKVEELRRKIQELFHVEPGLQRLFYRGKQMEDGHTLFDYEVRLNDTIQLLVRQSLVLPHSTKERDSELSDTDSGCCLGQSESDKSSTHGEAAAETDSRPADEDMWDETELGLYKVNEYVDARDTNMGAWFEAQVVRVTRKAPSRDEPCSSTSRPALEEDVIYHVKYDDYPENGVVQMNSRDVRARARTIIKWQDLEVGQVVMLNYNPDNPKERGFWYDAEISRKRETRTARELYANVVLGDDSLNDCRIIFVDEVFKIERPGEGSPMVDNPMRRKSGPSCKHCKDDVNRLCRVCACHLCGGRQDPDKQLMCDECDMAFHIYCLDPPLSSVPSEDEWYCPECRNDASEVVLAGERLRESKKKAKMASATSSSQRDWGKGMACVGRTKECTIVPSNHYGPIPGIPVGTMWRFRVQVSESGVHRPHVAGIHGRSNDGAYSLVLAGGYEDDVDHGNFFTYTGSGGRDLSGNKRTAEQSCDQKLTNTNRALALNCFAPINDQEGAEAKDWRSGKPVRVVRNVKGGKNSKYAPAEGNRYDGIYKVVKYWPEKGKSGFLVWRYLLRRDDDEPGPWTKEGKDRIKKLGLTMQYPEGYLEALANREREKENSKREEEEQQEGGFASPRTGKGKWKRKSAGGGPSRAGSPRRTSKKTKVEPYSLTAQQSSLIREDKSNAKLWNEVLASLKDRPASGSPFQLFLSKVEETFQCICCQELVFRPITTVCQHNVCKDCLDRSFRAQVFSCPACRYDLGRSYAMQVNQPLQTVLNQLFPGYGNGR

[29] = target: T5, Histone-lysine N-methyltransferase NSD2 (Homo sapiens, UniProt O96028); format: biochemical
T5 sequence (O96028 whole entry): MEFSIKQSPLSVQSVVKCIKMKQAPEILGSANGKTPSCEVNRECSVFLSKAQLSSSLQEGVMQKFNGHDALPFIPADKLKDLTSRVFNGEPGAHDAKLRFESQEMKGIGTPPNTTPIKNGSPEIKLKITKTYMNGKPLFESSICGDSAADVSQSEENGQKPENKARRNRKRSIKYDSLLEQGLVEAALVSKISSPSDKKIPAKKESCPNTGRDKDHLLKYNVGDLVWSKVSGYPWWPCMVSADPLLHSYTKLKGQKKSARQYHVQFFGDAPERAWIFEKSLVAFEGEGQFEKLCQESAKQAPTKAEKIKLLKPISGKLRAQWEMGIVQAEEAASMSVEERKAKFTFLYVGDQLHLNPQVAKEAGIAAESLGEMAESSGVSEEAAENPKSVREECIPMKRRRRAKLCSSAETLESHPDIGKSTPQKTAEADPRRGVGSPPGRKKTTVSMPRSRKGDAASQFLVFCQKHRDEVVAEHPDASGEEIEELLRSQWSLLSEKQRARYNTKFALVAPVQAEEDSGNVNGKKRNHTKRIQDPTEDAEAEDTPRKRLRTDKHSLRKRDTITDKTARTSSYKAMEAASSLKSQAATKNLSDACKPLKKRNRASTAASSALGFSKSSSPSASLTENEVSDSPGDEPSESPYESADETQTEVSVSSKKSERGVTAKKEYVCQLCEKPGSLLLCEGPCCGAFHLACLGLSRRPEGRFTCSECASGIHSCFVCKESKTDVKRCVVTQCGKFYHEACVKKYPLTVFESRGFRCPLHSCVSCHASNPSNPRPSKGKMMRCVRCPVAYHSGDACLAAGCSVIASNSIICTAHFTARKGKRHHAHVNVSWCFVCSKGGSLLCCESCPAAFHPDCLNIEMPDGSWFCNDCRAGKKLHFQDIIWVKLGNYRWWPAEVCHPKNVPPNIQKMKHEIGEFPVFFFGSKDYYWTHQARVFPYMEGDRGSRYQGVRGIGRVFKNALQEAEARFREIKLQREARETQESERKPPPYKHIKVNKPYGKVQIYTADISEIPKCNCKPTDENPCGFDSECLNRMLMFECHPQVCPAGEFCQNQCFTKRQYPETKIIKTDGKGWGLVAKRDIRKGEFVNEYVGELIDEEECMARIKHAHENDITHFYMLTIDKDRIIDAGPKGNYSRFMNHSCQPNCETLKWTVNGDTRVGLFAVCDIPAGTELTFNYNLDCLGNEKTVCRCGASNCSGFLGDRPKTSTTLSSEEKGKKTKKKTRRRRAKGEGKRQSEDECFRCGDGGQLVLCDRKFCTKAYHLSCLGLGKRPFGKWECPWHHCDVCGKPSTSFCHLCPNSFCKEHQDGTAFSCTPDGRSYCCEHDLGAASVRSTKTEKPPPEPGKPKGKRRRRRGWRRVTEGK

EC50 [1]: 10 µM (active)
Structure (SMILES): COC(=O)c1ccc(-n2c(C)cc(C(=O)COc3ccc(OC(C)=O)cc3)c2C)cc1

IC50 [2]: > 96.6 µM (inactive)
Structure (SMILES): COC(=O)C1=C(C)N(Cc2ccccc2C(F)(F)F)C(NCc2ccc3c(c2)OCO3)=NC1c1cccc(F)c1 (stereo not given)

EC50 [3]: 2.89 µM (active)
AC50 [4]: 1.12 µM (inconclusive)
AC50 [5]: 1.41 µM (inconclusive)
Structure (SMILES): O=c1c(-c2nc3ccccc3s2)cccn1Cc1ccc(Cl)cc1

Structure (SMILES): O=C(Nc1ccc(Cl)cc1)Nc1ccc(Cl)c(C(F)(F)F)c1 [CLOFLUCARBAN]
IC50 [6]: 0.009 µM (active)
IC50 [7]: 0.003 µM (active)
IC50 [8]: 0.003 µM (active)
IC50 [9]: 0.009 µM (active)
IC50 [10]: 0.003 µM (active)
IC50 [11]: 0.001 µM (active)
IC50 [12]: 0.027 µM (active)
IC50 [13]: 0.003 µM (active)

Structure (SMILES): O=C(Nc1nccs1)c1cn(-c2ccccc2)nc1-c1ccncc1
IC50 [14]: > 37.2 µM (inactive)
IC50 [15]: 9.12 µM (active)
IC50 [16]: > 83.3 µM (inactive)

IC50 [17]: > 100 µM (active)
Structure (SMILES): Cc1nc2c(Cl)cccc2c(O)c1CN1CCCC1

Structure (SMILES): CC(C)(Oc1ccc(C2CC2(Cl)Cl)cc1)C(=O)O (stereo not given) [CIPROFIBRATE]
IC50 [18]: > 40 µM (inactive)
IC50 [19]: > 40 µM (inactive)
AC50 [20]: 70.8 µM (inconclusive)

Structure (SMILES): CCn1nc(-c2cccs2)nc2c(=O)n(C)c(=O)nc1-2
IC50 [21]: 5 µM
IC50 [22]: 1.98 µM (active)

Structure (SMILES): CCN(CC)C(C)CN1c2ccccc2Sc2ccccc21 (stereo not given) [ETHOPROPAZINE HYDROCHLORIDE]
IC50 [23]: > 33.3 µM (inactive)

Structure (SMILES): COc1ccc2c3c([nH]c2c1)[C@H](CO)N(C(C)=O)CC31CCN(Cc2ccccc2Cl)CC1
AC50 [24]: 17.1 µM (active)

Structure (SMILES): CCCCn1c(NC(=O)c2ccccc2)c(C#N)c2nc3ccccc3nc21
IC50 [22]: > 100 µM (not active)
IC50 [25]: > 66.6 µM (inactive)
IC50 [26]: 17.4 µM (active)
AC50 [27]: 47.4 µM (active)
IC50 [28]: > 43.8 µM (inactive)
AC50 [29]: 2.61 µM (active)
